Values of other authors as cited in patent US10517911B2, “Manufacturing methods, compositions, and medical applications of orally administered cannabis pharmaceuticals using representative/total/complete cannabis extractions (cannabis infused pills)” (priority 2016, dated 2019).

What was measured:
[1] = tested on: methicillin-resistant Staphylococcus aureus (MRSA)
[2] = target: COX-1 (Homo sapiens, UniProt P23219)
[3] = target: T1, COX-2 (Homo sapiens, UniProt P35354)
T1 sequence (P35354 18-604): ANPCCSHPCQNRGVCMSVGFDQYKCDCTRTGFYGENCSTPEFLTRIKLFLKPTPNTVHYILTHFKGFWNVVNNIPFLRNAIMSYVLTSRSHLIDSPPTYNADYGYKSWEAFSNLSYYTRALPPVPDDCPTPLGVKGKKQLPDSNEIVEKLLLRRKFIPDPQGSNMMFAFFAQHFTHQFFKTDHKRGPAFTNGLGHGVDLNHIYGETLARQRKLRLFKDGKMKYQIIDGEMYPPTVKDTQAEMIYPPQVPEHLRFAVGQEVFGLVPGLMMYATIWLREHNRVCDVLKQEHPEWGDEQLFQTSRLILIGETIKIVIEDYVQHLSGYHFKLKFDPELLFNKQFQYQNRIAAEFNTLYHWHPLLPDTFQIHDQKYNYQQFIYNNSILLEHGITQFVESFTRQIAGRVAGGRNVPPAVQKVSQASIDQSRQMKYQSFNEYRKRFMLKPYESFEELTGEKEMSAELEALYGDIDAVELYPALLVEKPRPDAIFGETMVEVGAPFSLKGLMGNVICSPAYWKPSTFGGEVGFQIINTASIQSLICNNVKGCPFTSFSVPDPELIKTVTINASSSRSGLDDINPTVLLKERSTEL

Chain of COX-1 (P23219 24-599): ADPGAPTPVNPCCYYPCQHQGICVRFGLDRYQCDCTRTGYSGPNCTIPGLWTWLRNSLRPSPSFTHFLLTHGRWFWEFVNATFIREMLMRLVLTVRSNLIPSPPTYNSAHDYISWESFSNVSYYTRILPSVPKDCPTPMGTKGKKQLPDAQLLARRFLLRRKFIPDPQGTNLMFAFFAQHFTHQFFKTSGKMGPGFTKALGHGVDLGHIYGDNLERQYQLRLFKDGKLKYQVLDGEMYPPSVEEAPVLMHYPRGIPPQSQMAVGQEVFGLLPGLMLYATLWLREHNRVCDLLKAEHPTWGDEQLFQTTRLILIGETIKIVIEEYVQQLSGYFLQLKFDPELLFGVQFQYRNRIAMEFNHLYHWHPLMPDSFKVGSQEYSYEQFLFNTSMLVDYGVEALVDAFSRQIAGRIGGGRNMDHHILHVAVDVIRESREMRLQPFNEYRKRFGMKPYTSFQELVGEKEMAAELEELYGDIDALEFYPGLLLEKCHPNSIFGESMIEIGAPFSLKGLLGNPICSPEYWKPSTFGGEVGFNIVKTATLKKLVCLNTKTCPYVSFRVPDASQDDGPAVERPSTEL

In the case of `C=C(C)[C@@H]1CCC(C)=C[C@H]1c1c(O)cc(CCCCC)cc1O` [Cannabidiol], the “activity against methicillin-resistant Staphylococcus aureus (MRSA)” value [1] is listed as “powerful activity”.

In the case of `CCCCCc1cc(O)c2c(c1)OC(C)(C)c1ccc(C)cc1-2` [Cannabinol], the “activity against methicillin-resistant Staphylococcus aureus (MRSA)” value [1] is listed as “powerful activity”.

In the case of `CCCCCc1cc(O)c2c(c1)OC(C)(C)[C@@H]1CCC(C)=C[C@@H]21` [Tetrahydrocannabinol I, Tetrahydrocannabinol], the COX-1 inhibition [2] is given as “no COX-1 or COX-2 inhibition”, the COX-2 inhibition [3] is given as “no COX-1 or COX-2 inhibition” and the “anti-inflammatory effectiveness relative to aspirin” value (times as effective as aspirin) is given as 20 times. The “anti-inflammatory effectiveness relative to hydrocortisone” value (times as effective as hydrocortisone) was 2 times.
